The text below walks through data of patent US12458640B2, “Pyrazolo[3,4-b]pyrazine SHP2 phosphatase inhibitors” (OTSUKA PHARMACEUTICAL CO., LTD., priority 2019, dated 2025).

Each structure is given as a SMILES string. Structures can show the parent of a compound that is named as a salt.

Experiment [1] relates to pERK. The experiment is described as follows: Cellular pERK Inhibition Assay (phospho-p44/42 MAPK sandwich ELISA). Format: cell-based. The conditions noted are these: Homo sapiens; HCC827 cells, 0.5 hours compound treatment; average where more than one data point. The method, then:
Cellular pERK Inhibition Assay
HCC827 cells (ATCC, Manassas, USA) were seeded into 96-well plates at a density of 1×10^5 cells/well in RPMI medium supplemented with 10% FBS and incubated 24 h. Compounds were diluted first in DMSO and then into serum-free medium, before being added to cells in triplicate to give a final concentration of 0.1% DMSO. Plates were incubated at 37° C. for 0.5 hours in a humidified atmosphere of 5% CO2 in air.
Following compound treatment, medium was removed and cells were lysed by adding 50 μL of lysis buffer (Cell Signalling Technology, Beverly, USA) to each well. Plates were then incubated at room temperature for 25 minutes with shaking. pERK levels were measured in lysates using the PathScan® phospho-p44/42 MAPK (Thr202/Tyr204) sandwich ELISA (Cell Signalling Technology, Beverly, USA) as per kit instructions. Briefly, 50 μL of cell lysate was added to 50 μL of ELISA sample diluent in a 96-well ELISA plate and incubated overnight at 4° C. Following washing, 100 μL of detection antibody was added per well and the plates incubated for 1 hour at 37° C. Plates were washed again and incubated at 37° C. for 30 minutes with 100 μl of HRP-linked secondary antibody per well. After final washing, 100 μL per well of TMB substrate was added and plates incubated at 37° C. to develop colour. Colour development was stopped by the addition of 100 μL per well of stop solution. Plates were read at 450 nm on a SpectraMax Gemini reader (Molecular Devices, Uckfield, UK).
The average signal from blank wells (no cells added) was subtracted from the signals from each sample well. Levels of pERK were then expressed as “percent of control”, using DMSO treated samples as control. Dose response curves were generated using GraphPad Prism Version 6 (GraphPad Software, La Jolla, USA) and fitted using the four parameter logistic curve fit.

Experiment [2] addresses SHP2 (Homo sapiens (Human), UniProt Q06124). Kind of experiment: Shp2 Biochemical Assay (DiFMUP conversion). The note with it: for IC50: 10 pM SHP2, activating peptide pIRS1, DiFMUP substrate, average where more than one data point. Here is the method:
SHP2 activity was monitored by measuring the conversion of the surrogate substrate 6,8-difluoromethylumbelliferyl phosphate (DiFMUP) to the fluorescent product, 6,8-difluoromethylumbelliferone (DiFMU).
SHP2 was pre-incubated with test compounds and the activating peptide pIRS1 (H2N-LN(pY)IDLDLV-(PEG)8-LST(pY)ASINFQK-amide) for 30 min, prior to addition of the 6,8-difluoromethylumbelliferyl phosphate (DiFMUP), (Thermo Fisher D6567). Final assay concentrations were 10 pM SHP2, 0.25 μM pIRS1 peptide, 50 μM DiFMUP, 25 mM Bis-Tris propane, pH 7.0, 150 mM NaCl, 0.05% (v/v) Tween-20, 0.5 mM TCEP and 5% (v/v) DMSO. Rates of reaction were then measured over 30 min by monitoring fluorescence on a BMG Pherastar reader at excitation 360 nm/emission 450 nm. IC50 values were calculated from the normalized dose-response plots using four parameter logistic curve fit.

Chain of SHP2 (Q06124 whole entry): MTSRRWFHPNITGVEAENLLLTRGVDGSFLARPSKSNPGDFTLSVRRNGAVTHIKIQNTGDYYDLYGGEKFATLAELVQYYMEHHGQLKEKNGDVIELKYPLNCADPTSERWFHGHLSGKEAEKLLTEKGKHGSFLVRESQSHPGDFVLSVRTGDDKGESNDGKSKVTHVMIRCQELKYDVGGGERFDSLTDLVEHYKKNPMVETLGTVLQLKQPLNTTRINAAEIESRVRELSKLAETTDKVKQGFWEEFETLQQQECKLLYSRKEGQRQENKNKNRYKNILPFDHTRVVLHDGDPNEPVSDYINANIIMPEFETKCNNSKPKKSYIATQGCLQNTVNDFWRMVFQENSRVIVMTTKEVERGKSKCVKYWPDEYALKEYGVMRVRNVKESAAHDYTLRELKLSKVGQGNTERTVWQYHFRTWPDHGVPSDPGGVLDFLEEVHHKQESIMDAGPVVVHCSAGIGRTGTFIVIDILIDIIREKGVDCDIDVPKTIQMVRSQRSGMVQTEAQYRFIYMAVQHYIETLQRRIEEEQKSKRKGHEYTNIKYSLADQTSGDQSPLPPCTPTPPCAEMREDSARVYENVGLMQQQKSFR

For the compound `Cc1nc2c(-c3ccc4ncc(N(C)C)nc4c3Cl)n[nH]c2nc1N1CCC2(CC1)CO[C@@H](C)[C@H]2N` [Example 10, (3S,4S)-8-{3-[5-chloro-3-(dimethylamino)quinoxalin-6-yl]-5-methyl-1H-pyrazolo[3,4-b]pyrazin-6-yl}-3-methyl-2-oxa-8-azaspiro[4.5]decan-4-amine], the values for the IC50 in experiment [1] and in experiment [2] were 17 nM and 19 nM, respectively.
Regarding `C[C@@H]1OCC2(CCN(c3nc4[nH]nc(-c5cccc(Cl)c5Cl)c4nc3CO)CC2)[C@@H]1N` [Example 18, {6-[(3S,4S)-4-amino-3-methyl-2-oxa-8-azaspiro[4.5]decan-8-yl]-3-(2,3-dichlorophenyl)-1H-pyrazolo[3,4-b]pyrazin-5-yl}methanol], the IC50 in experiment [1] stood at 4.9 nM. In experiment [2] (at 0.0030 μM, read-out: SHP2 % inhibition at given concentration), the inhibition at 0.003 µM was found to be 37%.
In the case of `Cc1nc2c(-c3ccc4nn(C)cc4c3Cl)n[nH]c2nc1N1CCC2(CC1)CC(F)(F)C[C@H]2N` [Example 2, (1R)-8-[3-(4-chloro-2-methyl-2H-indazol-5-yl)-5-methyl-1H-pyrazolo[3,4-b]pyrazin-6-yl]-3,3-difluoro-8-azaspiro[4.5]decan-1-amine hydrochloride], the IC50 in experiment [1] came to 81 nM; in experiment [2], 17 nM.
For the compound `Cc1nc2c(-c3ccc4ncc(N5CCOCC5)nc4c3Cl)n[nH]c2nc1N1CCC2(CC1)CO[C@@H](C)[C@H]2N` [Example 26, (3S,4S)-8-{3-[5-chloro-3-(morpholin-4-yl)quinoxalin-6-yl]-5-methyl-1H-pyrazolo[3,4-b]pyrazin-6-yl}-3-methyl-2-oxa-8-azaspiro[4.5]decan-4-amine], the IC50 stood at 18 nM in experiment [1] and 28 nM in experiment [2].
Regarding `Cn1nc2ccc(-c3n[nH]c4nc(N5CCC6(CC5)CC(F)(F)C[C@H]6N)c(CO)nc34)c(Cl)c2c1Cl` [Example 16, {6-[(1R)-1-amino-3,3-difluoro-8-azaspiro[4.5]decan-8-yl]-3-(3,4-dichloro-2-methyl-2H-indazol-5-yl)-1H-pyrazolo[3,4-b]pyrazin-5-yl}methanol], the values for the IC50 in experiment [1] and in experiment [2] were 6.2 nM and 7 nM, respectively.
Consider `Cc1nc2c(-c3ccc4nn(C)cc4c3Cl)n[nH]c2nc1N1CCC2(CC1)C[C@@H](C(F)(F)F)C[C@H]2N` [Example 1, (1R,3R)-8-[3-(4-chloro-2-methyl-2H-indazol-5-yl)-5-methyl-1H-pyrazolo[3,4-b]pyrazin-6-yl]-3-(trifluoromethyl)-8-azaspiro[4.5]decan-1-amine hydrochloride], for which the IC50 in experiment [1] came out at 74 nM; in experiment [2], 20 nM.

As usually defined, the IC50 is the point on the concentration scale where inhibition reaches its midpoint. High values mean a need for much substance, low ones inhibition by little substance.
